In brackets after ≈: the same amount, converted by molar mass. Read-outs that look alike come from different tables or passages of the source. Residues, ends and D or L forms follow the SMILES beside them.
Key:
[1] = MTS cytotoxicity assay; type: cell-based; conditions: human
Description: (§1) HeLa CCL-2 epithelial adenocarcinoma cells from American Type Culture Collection (ATCC) were maintained in DMEM high glucose media with 4 mM L-glutamine (NyClone) and 100 U/mL penicillin, 100 μg/mL streptomycin (pen/strep) (Life Technologies), and 10% (v/v) inactivated fetal bovine serum (FBS) (NyClone). Cells were grown in 5% CO2 at 37° C. and were detached from the culturing dish at 80% confluency using 0.025% trypsin-EDTA (NyClone) treatment. Peptide influence on the cell viability was estimated by using the MTS assay according to the manufacturer's protocol (MTS, CellTiter96® AQ One Solution Cell Proliferation Assay, Promega) with minor modifications and as described elsewhere (Mishra et al. (2015) RSC Advances 5:59758-59769). In short, cells were cultured in flat bottomed 96 well microtiter plates (Corning Life Science) at a seeding density of 20,000 cells/well. At confluence ˜100% achieved after 20-24 hours of cultivation, the cells were washed twice with 100 μL Dulbecco's Phosphate Buffered Saline (Life Technologies). Further, 90 μL of DMEM media with 10% FBS, pen/step was added before exposure to 10 μL of the peptide solution in the concentration range 12.5-100 μM. Plates were incubated at 37° C. After 1 hour, 10 μL MTS, CellTiter96® was added. Plates were further incubated for another 2 hours at 37° C. and finally, the absorbance was measured on ChroMate® reader (Awareness Technology) at 492 nm. Culture medium and 0.2% SDS were used as negative and positive controls, respectively.
Human skin HaCaT (immortalized keratinocyte from AddexBio, T0020001) and kidney HEK293 cells were also cultivated for cytotoxicity evaluation of the peptides in a similar manner.

[2] = tested on: S. aureus Mu50; type: cell-based, Staphylococcus aureus
Procedure, shortened: (§2)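 Broth microdilution: exponential-phase bacteria at 10^6 CFU incubated with serially diluted peptides ~20 hours at 37° C, read at 630 nm to give MICs. For S. aureus USA300, effects of up to 10% human serum, pH 6.8/7.4/8.0 and 150 mM NaCl also tested.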

[3] = tested on: S. aureus UAMS-1; type: cell-based, Staphylococcus aureus
Procedure, shortened: as §2

[4] = tested on: S. aureus USA300; type: cell-based, Staphylococcus aureus; conditions: for Antimicrobial activity (MIC) 150 mM NaCl / Antimicrobial activity (MIC) USA300 / MIC S. aureus USA300: USA300; for Antimicrobial activity (MIC) pH 6.8: USA300, pH 6.8; for Antimicrobial activity (MIC) Normal medium (pH 7.4): USA300, pH 7.4; for Antimicrobial activity (MIC) pH 8: USA300, pH 8
Procedure, shortened: as §2

[5] = tested on: S. aureus Newman; type: cell-based, Staphylococcus aureus
Procedure, shortened: as §2

[6] = tested on: Candida albicans ATCC 10231; type: cell-based; conditions: ATCC 10231, 48 h
Description: (§3) Fungal strains used in this study include Candida albicans ATCC 10231, C. glabrata ATCC 2001 and C. tropicalis ATCC 13803. The fungi were grown in Remel Dex broth (Thermo Fisher Scientific, KS). Antifungal assays were conducted essentially as described for antibacterial assays above, except for a higher starting density at an OD600 0.02 and a longer incubation time of ˜48 hours prior to microplate reading (Mishra et al. (2015) RSC Advances 5:59758-59769).

[7] = tested on: E. coli K12; type: cell-based, Escherichia coli; conditions: K12
Procedure, shortened: as §2

[8] = tested on: S. epidermidis 1457; type: cell-based, Staphylococcus epidermidis
Procedure, shortened: as §2

[9] = Hemolytic assay; type: cell-based; conditions: red blood cells, hemolysis
Description: Hemolytic analysis of selected peptides was performed using an established protocol (Mishra et al. (2015) RSC Advances 5:59758-59769). Briefly, human blood cells (UNMC Blood Bank) were washed three times with phosphate buffer saline (PBS) and diluted to a 2% solution. After peptide treatment, incubation at 37° C. for one hour, and centrifugation at 13,000 rpm, aliquots of the supernatant were transferred to a fresh 96-well microplate. To assess peptide cytotoxicity, the amount of hemoglobin released was measured at 545 nm. The percent lysis was calculated by assuming 100% release when human blood cells were treated with 1% TRITON™ X-100, and 0% release when incubated with PBS buffer. The hemolytic assays using chicken, bovine, and porcine blood cells (Lampire Biological Laboratories, Inc.) were performed in the same manner.

[10] = tested on: C. glabrata ATCC 2001; type: cell-based, Candida glabrata; conditions: ATCC 2001, 48 h
Description: as §3

[11] = MTS cytotoxicity assay; type: cell-based; conditions: human, HeLa CCL-2 cells
Description: as §1

[12] = tested on: S. aureus USA300; type: cell-based, Staphylococcus aureus; conditions: USA300
Description: The minimal bactericidal concentration (MBC) was determined by plating 50 μl of the content in the clear wells of the above MIC assays. MBC was determined on the petri dishes without bacterial colony formation after overnight growth (Wang et al. (2012) Biochemistry 51:653-664).

[13] = tested on: C. tropicalis ATCC 13803; type: cell-based, Candida tropicalis; conditions: ATCC 13803, 48 h
Description: as §3

[14] = tested on: B. subtilis 168; type: cell-based, Bacillus subtilis
Procedure, shortened: as §2

[15] = chicken, read-out: LC50 Chicken RBCs
[16] = human, read-out: LC50 Human RBCs
[17] = pig, read-out: LC50 Porcine RBCs

Compound	CC50 at 1 hour ([1]; HEK293 cells)	CC50 at 1 hour ([1]; HaCaT cells)	Antimicrobial activity (MIC) Mu50 [2]	Antimicrobial activity (MIC) UAMS-1 [3]	change in MIC on drop of pH from 8 to 6.8 ([4]; S. aureus USA300)	Antimicrobial activity (MIC) 150 mM NaCl [4]	Antimicrobial activity (MIC) USA300 [4]	MIC S. aureus USA300 [4]	Antimicrobial activity (MIC) pH 6.8 [4]	Antimicrobial activity (MIC) Normal medium (pH 7.4) [4]	Antimicrobial activity (MIC) pH 8 [4]	Antimicrobial activity (MIC) Newman [5]	MIC Candida albicans [6]	MIC E. coli K12 [7]	MIC S. epidermidis 1457 [8]	HC50 at 1 hour [9, 15]	HC50 at 1 hour [9, 16]	HC50 at 1 hour [9, 17]	MIC Candida glabrata [10]	CC50 at 1 hour [11]	other results
CC[C@H](C)[C@H](NC(=O)[C@H](CCCCN)NC(=O)[C@H](CCCNC(=N)N)NC(=O)[C@H](CC(C)C)NC(=O)[C@H](Cc1c[nH]c2ccccc12)NC(=O)[C@H](Cc1c[nH]c2ccccc12)NC(=O)[C@@H](N)Cc1c[nH]c2ccccc12)C(=O)N[C@@H](Cc1c[nH]c2ccccc12)C(N)=O [TetraF2W-RK, WWWLRKIW] (H-WWWLRKIW-NH2; N-terminus assumed)	60 µM	60 µM	3.1 µM	6.2 µM	two-fold	3.1 µM	3.1 µM	3.1 µM (≈ 3.94 µg/mL)	6.2 μM	3.1 μM	3.1 μM	3.1 µM	12.5 µM (≈ 15.9 µg/mL)	25 µM (≈ 31.8 µg/mL)	6.2 µM (≈ 7.89 µg/mL)	35 µM	30 µM	40 µM	12.5 µM (≈ 15.9 µg/mL)	> 100 µM	MBC S. aureus USA300 [12]: 12.5 µM (≈ 15.9 µg/mL); MIC Candida tropicalis [13]: 3.1 to 6.2 µM; MIC B. subtilis 168 [14]: 6.2 µM (≈ 7.89 µg/mL)
CC[C@H](C)[C@H](NC(=O)[C@H](CCCNC(=N)N)NC(=O)[C@H](CCCNC(=N)N)NC(=O)[C@H](CC(C)C)NC(=O)[C@H](Cc1c[nH]c2ccccc12)NC(=O)[C@H](Cc1c[nH]c2ccccc12)NC(=O)[C@@H](N)Cc1c[nH]c2ccccc12)C(=O)N[C@@H](Cc1c[nH]c2ccccc12)C(N)=O [TetraF2W-RR, WWWLRRIW] (H-WWWLRRIW-NH2; N-terminus assumed)	70 µM	70 µM	3.1 µM	6.2 µM	two-fold	3.1 µM	1.56 to 3.1 µM	1.6 to 3.1 µM	6.2 μM	1.56-3.1 μM	3.1 μM	3.1 µM	25 µM (≈ 32.5 µg/mL)	25 µM (≈ 32.5 µg/mL)	6.2 to 12.5 µM	55 µM	20 µM	40 µM	>25 µM	60 µM	fold more potent than temporin-SHf (anti-MRSA) ([4]; S. aureus USA300): 8 fold; MBC S. aureus USA300 [12]: 3.1 µM (≈ 4.03 µg/mL); MIC Candida tropicalis [13]: 3.1 µM (≈ 4.03 µg/mL); MIC B. subtilis 168 [14]: 3.1 to 6.2 µM

Source: US20190048052A1, “ANTI-MICROBIAL PEPTIDES AND COATINGS” (Board of Regents of the University of Nebraska, priority 2016, published 2019)
